Assay results reported in patent publication US8742082B2, “Compositions and methods for influencing satiety, lipid metabolism, and fat utilization” (Nestec S.A., priority 2008, dated 2014).

Tests used:
[1] = Chronic oral OEA in high fat diet: food intake; assay type: in vivo; conditions: C3H mice, 4 weeks
Excerpt: (§1) The physiological and biochemical effects of chronic oral OEA administration were investigated. Mice were chronically fed with OEA, provided as a supplement during 4 weeks, to study the effect on body weight gain and cumulative food intake, among other parameters.
(§2) Animals, diet and experimental design. Adult male C3H mice purchased at 8 weeks of age were individually housed and maintained ad libitum on different diets and water for 2 weeks. Seven mice were allocated in 3 groups by randomization by weight, and fed with a high fat diet (lipids represented 50% of daily energy) during 2 weeks. The composition of the high fat diet per kg was: 284.5 g of corn starch, 89.5 g of saccharose, 250 g of casein, 50 g of cellulose, 10 g of a mix of vitamins (V1001), 35 g of a mix of minerals (S10026) and 281 g of canola oil (UPAE, Jouy en Josas, France). Then, OEA was added to the diets at different levels to provide 0, 10, or 100 mg OEA/kg body weight. The mice were kept on each respective diet for 4 weeks. During the nutritional intervention, daily food intake was monitored and the mice were weighed 3 times a week.
(§3) Statistical analysis. Results were determined as mean±standard error of the mean (SEM). Statistical analysis of physiological parameters was performed by one-way ANOVA on Statview software (SAS institute, Cary, USA). Statistical significance was set up at the P<0.05 level.

[2] = Chronic oral OEA in high fat diet: plasma triglycerides and cholesterol; assay type: in vivo; conditions: C3H mice, 4 weeks; for Plasma triglycerides, change: P<0.05
Excerpt: as §1, §2
Sampling. At the end of the experimental period, mice were sacrificed by blood drawing after anesthesia with isoflurane. Plasma was obtained by centrifugation (1,000 g for 10 min at 4° C.). Mesenteric, epididymal, inguinal and peritoneal adipose depots, as well as liver, stomach, small intestine mucosa and gastrocnemian muscle were excised and frozen into liquid nitrogen. Plasma and organ samples were kept at −80° C. until analysis. Triglycerides, glucose, total cholesterol and HDL cholesterol were directly measured on plasma samples collected during the sacrifice by enzymatic procedures, using a Beckman Coulter Systems SYNCHRON LX 20 (Beckman Coulter, Fullerton, USA) (oxidase method, Beckman Coulter for glucose, GPO method, Beckman Coulter for TG, oxidase and esterase method, Beckman Coulter for cholesterol). HDL were isolated by specific solubilization, using a precipitation isolation kit (Beckman Coulter, Fullerton, USA).
as §3

[3] = test system: Protein convertase subtilisin/kexin type 9 (PCSK 9); test: Real-time PCR gene expression in peripheral tissues: PCSK9; assay type: in vivo; conditions: liver; C57bl6j mice, high fat diet, 100 mg/kg/body weight in diet, 5 weeks
Procedure: (§4) The expression of 45 genes was measured by real-time PCR in peripheral tissues to identify genes that were differentially expressed in response to oral administration of oleoylethanolamide (OEA) or a non-hydrolysable OEA analog (KDS 5104), which affect satiety, lipid metabolism, fat utilization, food intake, and body fat mass.
(§5) Animals, diet, and experimental design. Adult male C57bl6j mice purchased at 8 weeks of age were individually housed and maintained ad libitum on high fat diet and water for 2 weeks. Seven mice were randomly allocated in 3 groups and fed with a high fat diet (lipids represented 50% of daily energy) for 2 weeks. […]
(§6) RNA extraction and gene expression. […] The RNA concentration was determined on nanodrop from the absorbance at 260 nm. […] Real-time quantitative PCR (RT-qPCR) were performed on cDNA obtained as described above using a high through put system (Biomek 3000, Beckman & Coulter, Fullerton, USA) and a Lightcycler 480 (Roche/Hitachi, Basel, Switzerland) with SYBR Green Master mix+kit (Eurogentec, Philadelphia, USA). […] Values were expressed as ratio of RNA levels relative to control mice (diets with 0 mg of OEA/kg/body weight) using ΔΔ(Ct) (Livak K J & Schmittgen T D, 2001, Methods 25:402-8). Gene expression of the following genes was measured (abbreviation and GenBank Accession shown in parentheses). […]

[4] = test system: Oleoylethanolamide synthase (OEA synthase); test: Real-time PCR gene expression in peripheral tissues: OEA synthase; assay type: in vivo; conditions: proximal intestine; C57bl6j mice, high fat diet, 100 mg/kg/body weight in diet, 5 weeks
Procedure: as §4, §5, §6

[5] = test system: Glucose 6-phosphatase (G6P); test: Real-time PCR gene expression in peripheral tissues: G6P; assay type: in vivo; conditions: liver; C57bl6j mice, high fat diet, 100 mg/kg/body weight in diet, 5 weeks
Procedure: as §4, §5, §6

[6] = test system: overall gene expression pattern; test: Multivariate statistical analysis of overall gene expression pattern; assay type: in vivo; conditions: C57bl6j mice, high fat diet, 100 mg/kg/body weight in diet, 5 weeks
Procedure: as §4, §5, §6

[7] = oral, over the 12 first hours; cited from earlier work

For CCCCCCCC/C=C\CCCCCCCC(=O)NCCO [OEA, N-oleoyl-ethanolamide], the “Dose dependence of the effect on food intake” value ([1]; 10 vs 100 mg/kg body weight) was “not dose dependent”, the “Food intake, change in mice consuming OEA” value ([1]; high fat diet, OEA 10 or 100 mg/kg body weight in diet, P<0.05) was −6.5% and the “Plasma triglycerides, change” value ([2]; 10 mg dose) was −72%. The plasma total cholesterol ([2]; 10 mg/kg) was “trend to decreased”, the “Plasma triglycerides, change” value ([2]; 100 mg dose) was −59% and the “plasma total cholesterol (decrease)” value ([2]; 100 mg/kg body weight) was “reached statistical significance”. The “PCSK9 l, ratio of RNA levels relative to control mice” value [3] was 1.44, the “OEA synthase i, ratio of RNA levels relative to control mice” value [4] was −1.38 and the “G6P l, ratio of RNA levels relative to control mice” value [5] was 1.29. The “overall gene expression pattern (multivariate statistical analysis)” value [6] was “significant shift” and the “food intake after acute gavage” value [7] was “decrease significantly”.
